Test results as given in patent publication US10174030B2 (priority 2014, dated 2019).

Target: LSD1 (Homo sapiens (Human), UniProt O60341)
Experiment: biochemical
Protocol: After stopping the reactions plates were incubated for 30 minutes and read on a PHERAstar FS plate reader (BMG Labtech).

COc1ccc(CC2(CN[C@@H]3C[C@H]3c3ccccc3)CCN(CC3(C(=O)O)CC3)CC2)cn1 [Example 69, 1-{[4-[(6-methoxypyridin-3-yl)methyl]-4-({[(1R,2S)-2-phenylcyclopropyl]amino}methyl)piperidin-1-yl]methyl}cyclopropanecarboxylic acid]
IC50: < 100 nM
